Numbers after ± are expanded uncertainties.
Settings: Liquid; ebulliometry

| Structure (SMILES) | Normal boiling temperature |
| --- | --- |
| O [water] | 99.81 ± 0.2 °C |
| CN1CCCC1=O [N-methylpyrrolidone] | 203.86 ± 0.2 °C |
| CC(=O)O [acetic acid] | 117.70 ± 0.2 °C |
| CNC(C)=O [N-methylacetamide] | 204.92 ± 0.2 °C |

— the NIST ThermoML archive (doi:10.1016/j.fluid.2006.02.002)
